Measurements as given in US8445409B2, “Use of 5-benzyloxymethyl-1,2-isoxazoline derivatives as a herbicide” (Moghu Research Center Ltd., priority 2007, dated 2013).
“Also recorded” adds a separate entry of the source.

Tests used:
Wheat = assay: Upland pot test, pre-/post-emergence spray, visual rating; type: in vivo, wheat (TRIAZ); conditions: for Visual measurement: Crops, Wheat: 2 weeks after spray, 0-10 scale (10=completely killed)
Description: (§1) To a rectangular plastic pot having a surface area of 300 cm^2, mixed soils including blend bed soil (Boonong, Horticultural Bed Soil No. 3) and sandy loam soil were filled (mixing ratio, 1:1). Seeds of the eight different types of weeds including gramineous weed such as barnyardgrass, large crabgrass, green foxtail, fall panicum, and broadleaf weed such as common cocklebur, velvetleaf, Indian joint-vetch, and morningglory were sown. To the other pot containing the same soil mixture, seeds of the five different types of crops including corn, soybean, cotton, wheat and rice were sown. Pots were kept in a greenhouse of which temperature was maintained at 25˜30° C. (day) or 15˜25° C. (night), and regularly watered.
(§2) After fourteen days and when the crops and the weeds reached their three-leaf stage, the other set of a crop pot and a weed pot were prepared by the same method as described above. Then, “test substance” was sprayed thereto. In this case, spray treatment to the plants after they have grown for two weeks corresponded to post-emergence treatment while spray treatment to the seeds right after the sowing corresponded to pre-emergence treatment. Spray was carried out by using a track sprayer (R&D Sprayer, USA) equipped with a Teejet 8002 nozzle (Spraying Systems Co., USA). Spray volume was adjusted to 300 L/ha. The spray solution was prepared by dissolving the “test substance” in acetone and adding the same volume of 0.2% (v/v) Tween 20 aqueous solution. Dosage of the test substance was 500, 250, 125, 62.5 or 31.3 g/ha. Two weeks after the spray of the test substance, efficacy and phytotoxic effect to the crops and the weeds were visually measured based on a 0 to 10 scale (0: no efficacy, 10: completely killed).

Soybean = assay: as above; type: in vivo, soybean (GLYMX); conditions: for Visual measurement: Crops, Soybean: 2 weeks after spray, 0-10 scale (10=completely killed)
Description: as §1, §2

[1] = test system: broadleaf weeds such as common cocklebur, Indian joint-vetch, velvetleaf, morningglory; assay: Upland pot test, broadleaf weeds as a group; type: in vivo
Description: as §1, §2

[2] = test system: crops such as corn, rice, wheat, soybean and cotton; assay: Upland pot test, crops as a group; type: in vivo; conditions: pre-emergence, 500 g/ha
Description: as §1
After fourteen days and when the crops and the weeds reached their three-leaf stage, the other set of a crop pot and a weed pot were prepared by the same method as described above. Then, “test substance” was sprayed thereto. In this case, spray treatment to the plants after they have grown for two weeks corresponded to post-emergence treatment while spray treatment to the seeds right after the sowing corresponded to pre-emergence treatment. […] Two weeks after the spray of the test substance, efficacy and phytotoxic effect to the crops and the weeds were visually measured based on a 0 to 10 scale (0: no efficacy, 10: completely killed).

[3] = test system: all types of the turfgrasses; assay: Turfgrass safety test, all turfgrasses as a group; type: in vivo
Description: Commercially available sod mats of zoysiagrass and bentgrass, Kentucky bluegrass, and perennial ryegrass were purchased. After cutting each turf sod mat in a size of 10 cm×20 cm, it was transplanted to a rectangular plastic pot having a surface area of 300 cm^2 wherein mixed soils including blend of a bed soil (Boonong, Horticultural Nursery Soil No. 3) and sandy loam soil were filled (mixing ratio, 1:1). After transplanting, the grass was mowed (0.5˜1.0 cm in height) once a week, and kept for one month in a greenhouse maintained at 25˜30° C. (day) or 15˜25° C. (night), then the test substance of the present invention was applied at dosage of 4, 2, 1 and 0.5 kg/ha. As a reference, Dithiopyr (32% EC, manufactured by Dongbu Hannong Chemical Company, KOREA) was applied at the recommended rate of 0.48 kg/ha, or twice or quadruple amount thereof, i.e., 0.96 and 1.92 kg/ha, respectively. Spray was made by a track sprayer equipped with a Teejet 8002 nozzle. Spray volume was adjusted to 2,000 L/ha, which was a typical value for an Asian (Korea and Japan) golf course. The spray solution was prepared by dissolving the “test substance” in acetone and adding the same volume of 0.2% (v/v) Tween 20 aqueous solution. Two, four or six weeks after the spray of the test substance, phytotoxicity to the turfgrass were visually evaluated based on 0 to 10 scale (0: no phytotoxic effect, 10: completely killed). The test was conducted in a randomized block design with a three replicates and the results were summarized in the following Table 2 is an average value of the replicates.

Large crabgrass = assay: Upland pot test, pre-/post-emergence spray, visual rating; type: in vivo, large crabgrass (DIGSA); conditions: pre-emergence application, 0.06~0.12 kg/ha
[4] = post-emergence foliar spray at three leaf stage, 31.2 g/ha
[5] = post-emergence foliar spray at three leaf stage, 62.5 g/ha
[6] = post-emergence foliar spray at three leaf stage, 125 g/ha
[7] = post-emergence foliar spray at three leaf stage, 250 g/ha
[8] = post-emergence foliar spray at three leaf stage, 500 g/ha
[9] = pre-emergence soil treatment, 31.2 g/ha
[10] = pre-emergence soil treatment, 62.5 g/ha
[11] = pre-emergence soil treatment, 125 g/ha
[12] = pre-emergence soil treatment, 250 g/ha
[13] = pre-emergence soil treatment, 500 g/ha

Cc1ccsc1C1=NOC(C)(COCc2c(F)cccc2F)C1 (stereo not drawn) [test substance, 5-(2,6-difluorobenzyl)oxymethyl-5-methyl-3-(4-methylthiophen-5-yl)-1,2-isoxazoline]
Visual measurement: Crops, Wheat (Wheat; [4]): 0 | Visual measurement: Crops, Wheat (Wheat; [5]): 0 | Visual measurement: Crops, Wheat (Wheat; [6]): 0 | Visual measurement: Crops, Wheat (Wheat; [7]): 0 | Visual measurement: Crops, Wheat (Wheat; [8]): 0 | Safety to wheat (in words) (Wheat; post-emergence treatment): safe | Visual measurement: Crops, Wheat (Wheat; [9]): 0 | Visual measurement: Crops, Wheat (Wheat; [10]): 0 | Visual measurement: Crops, Wheat (Wheat; [11]): 0 | Visual measurement: Crops, Wheat (Wheat; [12]): 0 | Visual measurement: Crops, Wheat (Wheat; [13]): 0 | Visual measurement: Crops, Soybean (Soybean; [4]): 0 | Visual measurement: Crops, Soybean (Soybean; [5]): 0 | Visual measurement: Crops, Soybean (Soybean; [6]): 0 | Visual measurement: Crops, Soybean (Soybean; [7]): 2 | Visual measurement: Crops, Soybean (Soybean; [8]): 6 | Safety to soybean (in words) (Soybean; post-emergence treatment): not safe | Visual measurement: Crops, Soybean (Soybean; [9]): 0 | Visual measurement: Crops, Soybean (Soybean; [10]): 0 | Visual measurement: Crops, Soybean (Soybean; [11]): 0 | Visual measurement: Crops, Soybean (Soybean; [12]): 0 | Visual measurement: Crops, Soybean (Soybean; [13]): 0 | Control of broadleaf weeds (in words) ([1]; post-emergence application, 500 g/ha): well controlled | Control of broad-leaf weeds (in words) ([1]; post-emergence treatment at three-leaf stage, FIG. 2): somewhat controlled showing a mild suppression effect | Effect on broadleaf weeds (in words) ([1]; pre-emergence treatment, FIG. 1): almost no effect; also recorded: not affected | Phytotoxic effect to crops (in words) [2]: completely safe without any phytotoxic effect | Phytotoxicity to turfgrasses (in words) ([3]; 1~2 kg/ha, compared to Dithiopyr at 0.48 kg/ha): negligible phytotoxicity | Safety to all types of the turfgrasses (in words) ([3]; 4 kg/ha): excellent safety | Phytotoxic effect to turfgrasses (in words) ([3]; dosage the same or less than 0.5 kg/ha): almost no phytotoxic effect | Control of large crabgrass (in words) (Large crabgrass): almost completely
